Data: patent US5565494A, “Antitumor compositions and methods of treatment” (Eli Lilly and Company, priority 1995, dated 1996)
Several values for one entry are separate records, joined by “and”; a condition that tells them apart may be missing. Identical values can stand only once.

Assays:
Type in all cases: in vivo
[1] = test system: 6C3HED lymphosarcoma (Gardner lymphosarcoma, GLS); experiment: Antitumor activity in C3H mice bearing 6C3HED lymphosarcoma allograft, oral administration; settings: for Percent Inhibition of tumor growth: tumor measured five days after treatment ended
Text: A third tumor model employed C3H mice bearing the widely used allograft 6C3HED lymphosarcoma, also known as the Gardner lymphosarcoma (GLS). The 6C3HED lymphosarcoma was obtained from the Division of Cancer Treatment, National Cancer Institute, Tumor Bank, maintained at E.G. and G. Mason Research (Worcester, Mass.).
(§1) First passage tumors were stored in liquid nitrogen, using standard techniques. The transplanted tumor was reestablished from the Tumor Bank every six months or as needed. The tumor was maintained by serial passage twice weekly in the host mice.
(§2) In the procedures utilized here, the tumor was removed from passage animals and minced into 1- to 3-mm cubic fragments using sterile techniques. Tumor pieces were checked for sterility using both Antibiotic Medium 1 and Brain Heart Infusion (Difco, Detroit, Mich.). The xenograft tumor pieces were implanted into the recipient CD1 Nu/Nu mice subcutaneously in an axillary site by trochar. The allograft 6C3HED tumor pieces were implanted into the recipient C3H mice in an analogous fashion.
Drug therapy on the appropriate schedule was initiated seven days after tumor implantation. […] The total dosage volume for each administration was 0.5 ml. All animals were weighed at the beginning and end of administration of the subject compounds. Food and water were provided ad libitum.
(§3) Each control group and each dosage level of the treated groups consisted of 9 or 10 mice selected at random from the pool of implanted animals. The formulations were administered orally by gavage with the use of an 18-gauge needle. Compounds were dosed daily for 10 days for the studies using the human tumor xenografts and 8 days for the studies using the allograft.
The tumor was measured five days after treatment ended with two dimensional measurements (width and length) of the tumor taken using digital electronic calipers interfaced to a microcomputer. […] Tumor weights were calculated from these measurements using the following formula: [formula]

[2] = test system: VRC5 human colon adenocarcinoma; experiment: Antitumor activity in mice bearing VRC5 human colon adenocarcinoma xenograft, oral administration; settings: for Toxic/Total (mice which died relative to total in group): VRC5, oral gavage daily for 10 days; for Percent Inhibition of tumor growth: po
Text: (§4) Two of the tumor models used for showing the anti-neoplastic activity of the sulfonylureas of this invention were the human colon xenografts, HXGC3 and VRC5. J. A. Houghton and D. M. Taylor, British Journal of Cancer, 37:213-223 (1978). These tumors were obtained from St. Jude's Children's Research Hospital and have been widely used as human tumor models.
as §1, §2
(§5) Drug therapy on the appropriate schedule was initiated seven days after tumor implantation. The compound being tested was mixed with 2.5% Emulphor EL620 from GAF Corporation (1:40 dilution in 0.9% saline). The total dosage volume for each administration was 0.5 ml. All animals were weighed at the beginning and end of administration of the subject compounds. Food and water were provided ad libitum.
as §3
(§6) The tumor was measured five days after treatment ended with two dimensional measurements (width and length) of the tumor taken using digital electronic calipers interfaced to a microcomputer. J. F. Worzalla, et Investigational New Drugs, 8:241-251 (1990). Tumor weights were calculated from these measurements using the following formula: [formula] At least one control group of an equal number of mice was treated with the same volume of 2.5% Emulphor only. The percent inhibition is determined by subtracting the ratio of the mean tumor size of the test group relative to the control group from one and multiplying the result by 100.
(§7) The results of several experiments in mice bearing the HXGC3 and VRC5 human colon adenocarcinomas and the 6C3HED lymphosarcoma when the Formula I compounds were administered orally are provided in Table I. In the table, Column 1 refers to the example number of the compound tested; Column 2 describes the particular human tumor xenograft or mouse allograft being studied; Column 3 gives the dosage level of the compound of Formula I in milligrams per kilogram of body weight; Column 4 describes the percent inhibition of tumor growth; and Column 5 tallies the number of mice which died during the course of the experiment relative to the total number of animals in the group.

[3] = test system: HXGC3 human colon adenocarcinoma; experiment: Antitumor activity in mice bearing HXGC3 human colon adenocarcinoma xenograft, oral administration; settings: for Toxic/Total (mice which died relative to total in group): HXGC3, oral gavage daily for 10 days; for Percent Inhibition of tumor growth: po
Text: as §4, §1, §2, §5, §3, §6, §7

[4] = 6C3HED, 150 mg/kg, oral gavage daily for 8 days
[5] = 6C3HED, 300 mg/kg, oral gavage daily for 8 days
[6] = Mus musculus, 6C3HED, po, read-out: Percent Inhibition of tumor growth
[7] = 6C3HED, 600 mg/kg, oral gavage daily for 8 days

In the case of `CC(C)Nc1ccc(S(=O)(=O)NC(=O)Nc2ccc(Cl)c(Cl)c2)cc1` [Example 11], the “Toxic/Total (mice which died relative to total in group)” value [1, 4] is reported as 0/10, the “Percent Inhibition of tumor growth” value [1, 4] is reported as 71% and the “Toxic/Total (mice which died relative to total in group)” value [1, 5] is reported as 1/10. The “Percent Inhibition of tumor growth” value [1, 5] was 96%.

`Nc1ccc(S(=O)(=O)NC(=O)Nc2ccc(Cl)c(Cl)c2)cc1` [Example 8, N-[[(3,4-dichlorophenyl)amino]-carbonyl]-4-(amino) benzenesulfonamide] showed an inhibition in vivo at 194 mg/kg [1, 6] of 34%, an inhibition in vivo at 388 mg/kg [1, 6] of 29% and an inhibition in vivo at 775 mg/kg [1, 6] of 100%. The “Toxic/Total (mice which died relative to total in group)” value ([1]; mouse, in vivo) was 1/10 and 0/10.

With `CN(C)c1cccc(S(=O)(=O)NC(=O)Nc2ccc(Cl)cc2)c1` [Example 4, N-[[(4-chlorophenyl)amino]carbonyl]-3-(dimethylamino)benzenesulfonamide] the “Toxic/Total (mice which died relative to total in group)” value [1, 4] was 0/10, the “Toxic/Total (mice which died relative to total in group)” value [1, 5] was 0/10 and the inhibition in vivo at 150 mg/kg [1, 6] was 73%. The inhibition in vivo at 300 mg/kg [1, 6] was 95%.

In the case of `O=C(Nc1ccc(Cl)cc1)NS(=O)(=O)c1ccc(N2CCCC2)cc1` [Example 7, N-[[(4-chlorophenyl)amino]-carbonyl]-4-(1-pyrrolidinyl) benzenesulfonamide], the “Toxic/Total (mice which died relative to total in group)” value [1, 4] is reported as 0/10, the “Toxic/Total (mice which died relative to total in group)” value [1, 5] is reported as 0/10 and the inhibition in vivo at 150 mg/kg [1, 6] is reported as 44%. The inhibition in vivo at 300 mg/kg [1, 6] was 48%.

`CCNc1ccc(S(=O)(=O)NC(=O)Nc2ccc(Cl)cc2)cc1` [Example 5, N-[[(4-chlorophenyl)amino]carbonyl]-4-(ethylamino)benzenesulfonamide] was tested, and the “Toxic/Total (mice which died relative to total in group)” value [1, 5] was 0/10 and the inhibition in vivo at 300 mg/kg [1, 6] was 74%.

In the case of `O=C(Nc1ccc(Cl)cc1)NS(=O)(=O)c1ccc(N2CCOCC2)cc1` [Example 6, N-[[(4-chlorophenyl)amino]-carbonyl]-4-(4-morpholinyl) benzenesulfonamide], the “Toxic/Total (mice which died relative to total in group)” value [1, 4] is reported as 0/10, the “Toxic/Total (mice which died relative to total in group)” value [1, 5] is reported as 0/10 and the inhibition in vivo at 150 mg/kg [1, 6] is reported as 17%. The inhibition in vivo at 300 mg/kg [1, 6] was 38%.

`CCN(CC)c1ccc(S(=O)(=O)NC(=O)Nc2ccc(Cl)c(Cl)c2)cc1` [Example 12] was tested, and the “Toxic/Total (mice which died relative to total in group)” value [1, 4] was 0/10, the “Toxic/Total (mice which died relative to total in group)” value [1, 5] was 0/10 and the inhibition in vivo at 150 mg/kg [1, 6] was 54%. For the same compound, the inhibition in vivo at 300 mg/kg [1, 6] was 70%.

With `CN(C)c1ccc(S(=O)(=O)NC(=O)Nc2ccc(Cl)cc2)cc1` [Example 1, N-[[(4-chlorophenyl)amino]carbonyl]-4-(dimethylamino)benzenesulfonamide] the “Toxic/Total (mice which died relative to total in group)” value ([1]; 6C3HED, 37.5 mg/kg, oral gavage daily for 8 days) was 0/10, the “Toxic/Total (mice which died relative to total in group)” value ([1]; 6C3HED, 75 mg/kg, oral gavage daily for 8 days) was 0/10 and the “Toxic/Total (mice which died relative to total in group)” value [1, 4] was 0/10. For the same compound, the “Toxic/Total (mice which died relative to total in group)” value [1, 5] was 0/10, the “Toxic/Total (mice which died relative to total in group)” value [1, 7] was 10/10 and the “Percent Inhibition of tumor growth” value [1, 7] was “Toxic”. The inhibition in vivo at 37.5 mg/kg [1, 6] was 80%, the inhibition in vivo at 75 mg/kg [1, 6] was 99% and the inhibition in vivo at 150 mg/kg [1, 6] was 100%. It also gave an inhibition in vivo at 300 mg/kg [1, 6] of 100%.

For `CNc1ccc(S(=O)(=O)NC(=O)Nc2ccc(Cl)c(Cl)c2)cc1` [Example 10], the inhibition in vivo at 300 mg/kg [1, 6] was 100%, the inhibition in vivo at 600 mg/kg [1, 6] was 100% and the “Toxic/Total (mice which died relative to total in group)” value ([1]; mouse, in vivo) was 2/10 and 0/10.

For `CN(C)c1ccc(S(=O)(=O)NC(=O)Nc2ccc(Cl)c(Cl)c2)cc1` [Example 2, N-[[(3,4-dichlorophenyl)amino]carbonyl]-4-(dimethylamino)benzenesulfonamide], the “Toxic/Total (mice which died relative to total in group)” value ([2]; 150 mg/kg) was 0/10, the “Toxic/Total (mice which died relative to total in group)” value ([2]; 300 mg/kg) was 0/10 and the “Toxic/Total (mice which died relative to total in group)” value ([2]; 600 mg/kg) was 1/10. The “Toxic/Total (mice which died relative to total in group)” value ([2]; 1200 mg/kg) was 0/10, the “Percent Inhibition of tumor growth” value ([2]; 150 mg/kg) was 100% and the “Percent Inhibition of tumor growth” value ([2]; 300 mg/kg) was 100%. The “Percent Inhibition of tumor growth” value ([2]; 600 mg/kg) was 100%, the “Percent Inhibition of tumor growth” value ([2]; 1200 mg/kg) was 100% and the “Toxic/Total (mice which died relative to total in group)” value ([3]; 150 mg/kg) was 0/10. For the same compound, the “Toxic/Total (mice which died relative to total in group)” value ([3]; 300 mg/kg) was 0/10, the “Toxic/Total (mice which died relative to total in group)” value ([3]; 600 mg/kg) was 1/10 and the “Toxic/Total (mice which died relative to total in group)” value ([3]; 1200 mg/kg) was 1/10. For the same compound, the “Percent Inhibition of tumor growth” value ([3]; 150 mg/kg) was 100%, the “Percent Inhibition of tumor growth” value ([3]; 300 mg/kg) was 100% and the “Percent Inhibition of tumor growth” value ([3]; 600 mg/kg) was 100%. For the same compound, the “Percent Inhibition of tumor growth” value ([3]; 1200 mg/kg) was 100%, the “Toxic/Total (mice which died relative to total in group)” value ([1]; 6C3HED, 20 mg/kg, oral gavage daily for 8 days) was 0/10 and the “Toxic/Total (mice which died relative to total in group)” value ([1]; 6C3HED, 40 mg/kg, oral gavage daily for 8 days) was 0/10. The “Toxic/Total (mice which died relative to total in group)” value ([1]; 6C3HED, 80 mg/kg, oral gavage daily for 8 days) was 0/10, the “Toxic/Total (mice which died relative to total in group)” value ([1]; 6C3HED, 160 mg/kg, oral gavage daily for 8 days) was 0/10 and the inhibition in vivo at 20 mg/kg [1, 6] was 35%. For the same compound, the inhibition in vivo at 40 mg/kg [1, 6] was 51%, the inhibition in vivo at 80 mg/kg [1, 6] was 89% and the inhibition in vivo at 160 mg/kg [1, 6] was 97%.

For `CNc1ccc(S(=O)(=O)NC(=O)Nc2ccc(Cl)cc2)cc1` [Example 9], the “Toxic/Total (mice which died relative to total in group)” value [1, 5] was 0/10, the “Percent Inhibition of tumor growth” value [1, 5] was 100% and the “Toxic/Total (mice which died relative to total in group)” value [1, 7] was 0/10. For the same compound, the “Percent Inhibition of tumor growth” value [1, 7] was 100%.
